The source of these data is patent publication US9364523B2 (priority 2014, dated 2016).

Assay [1] deals with transfected COS cells. The format is cell-based.
Assay [2] relates to transfected HEK cells. Format: cell-based.

Each structure is given as a SMILES string. Residues, ends and D or L forms follow the SMILES beside them. *: point of attachment. Cbz = O=C(OCc1ccccc1)*

As for `CC(C)C[C@@H](C=O)NC(=O)[C@H](CC(C)C)NC(=O)[C@H](CC(C)C)NC(=O)OCc1ccccc1` [MG132] (Cbz-Leu-Leu-Leu-aldehyde), in assay [1], the “MTI-PAA expression in the presence of proteasome inhibitor” value is “enhanced”. Further, the “MTI-PAA levels in the presence of proteasome inhibitor” value in assay [2] is on record as “increased levels of MTI-PAA”.
